Biological target: T1, mouse iNOS (Mus musculus, UniProt P29477)
T1 construct: Full-length recombinant rat nNOS, mouse iNOS, bovine eNOS; made in house; host or cells: Escherichia coli
T1 sequence (P29477 1-1144): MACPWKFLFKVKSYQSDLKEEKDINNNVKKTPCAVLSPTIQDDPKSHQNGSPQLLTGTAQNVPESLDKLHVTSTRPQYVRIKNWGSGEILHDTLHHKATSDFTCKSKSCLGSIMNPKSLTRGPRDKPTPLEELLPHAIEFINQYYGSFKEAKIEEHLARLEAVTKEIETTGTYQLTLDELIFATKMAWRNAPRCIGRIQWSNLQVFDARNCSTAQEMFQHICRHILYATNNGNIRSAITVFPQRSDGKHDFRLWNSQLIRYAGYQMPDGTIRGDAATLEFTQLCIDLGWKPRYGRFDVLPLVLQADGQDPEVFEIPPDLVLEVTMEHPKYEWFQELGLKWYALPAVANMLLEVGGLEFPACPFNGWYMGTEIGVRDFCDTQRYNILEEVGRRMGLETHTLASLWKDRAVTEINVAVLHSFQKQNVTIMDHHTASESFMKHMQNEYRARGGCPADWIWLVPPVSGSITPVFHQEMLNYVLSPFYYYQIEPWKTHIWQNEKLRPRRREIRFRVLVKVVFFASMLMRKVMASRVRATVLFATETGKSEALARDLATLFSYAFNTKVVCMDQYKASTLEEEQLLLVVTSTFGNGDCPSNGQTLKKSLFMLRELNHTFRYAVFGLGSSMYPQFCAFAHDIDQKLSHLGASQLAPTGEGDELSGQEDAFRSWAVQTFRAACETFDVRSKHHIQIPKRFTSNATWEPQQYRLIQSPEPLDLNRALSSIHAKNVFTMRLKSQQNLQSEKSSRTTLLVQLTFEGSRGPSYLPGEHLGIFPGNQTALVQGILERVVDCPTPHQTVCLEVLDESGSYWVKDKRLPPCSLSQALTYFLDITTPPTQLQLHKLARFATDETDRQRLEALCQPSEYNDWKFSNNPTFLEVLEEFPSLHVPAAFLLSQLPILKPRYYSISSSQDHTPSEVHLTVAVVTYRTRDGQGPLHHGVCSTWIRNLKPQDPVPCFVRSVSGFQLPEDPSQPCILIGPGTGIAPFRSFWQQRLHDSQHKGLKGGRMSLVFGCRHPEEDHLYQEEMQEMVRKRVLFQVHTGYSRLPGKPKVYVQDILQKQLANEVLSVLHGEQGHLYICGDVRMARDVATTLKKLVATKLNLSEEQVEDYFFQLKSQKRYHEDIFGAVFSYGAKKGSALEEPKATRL
Assay: NOS inhibition, oxyhemoglobin (hemoglobin capture) test, recombinant iNOS
Format: biochemical
Conditions: dipeptide-like series, recombinant enzyme, 20 µM arginine, triplicate, NI = <50% inhibition at 100 μM
Outline: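 Full-length E. coli-expressed recombinant enzyme; NO formation followed kinetically at 401 nm via oxyhemoglobin capture at 30 °C in 100 mM Hepes pH 7.5 with NADPH, BH4, FAD, FMN, DTT; arginine 20 µM (iNOS) or 10 µM (nNOS, plus calmodulin and CaCl2). Screened at 100 and 10 μM; IC50 if >50% inhibition at 100 μM.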

| IC50 | inhibition at 100 µM (read-out: IC50 (μM) iNOS (Mouse)) | Structure (SMILES) |
| --- | --- | --- |
| 73.4 µM | – | CCSC(=N)NCCC[C@H](N)C(=O)N[C@H]1CCCN(Cc2ccccc2)C1 [Compound 7] |
| 12.9 µM | – | CCSC(=N)NCCC[C@H](N)C(=O)N[C@H]1CCCN(Cc2ccc(Cl)c(C(F)(F)F)c2)C1 [Compound 17] |
| – | < 50% | CCSC(=N)NCCC[C@H](N)C(=O)N[C@H]1CCCN(Cc2cccc(-c3cccc(C(=O)O)c3)c2)C1 [Compound 27] |
